Like-named read-outs stand apart in the source and are kept apart here.
Experiments:
Lovo = assay: 72-h MTT cytotoxicity assay Lovo; type: cell-based; conditions: Homo sapiens, Table 5, Colon
Method: (§1) MTT cytotoxicity assay. […] Standard 72-h MTT (thiazolyl blue; 3-[4,5-dimethylthiazol-2-yl]-2,5-diphenyltetrazolium bromide) assays were performed (Haselsberger, K.; Peterson, D. C.; Thomas, D. G.; Darling, J. L. Anti Cancer Drugs 1996, 7, 331-8; Loveland, B. E.; Johns, T. G.; Mackay, I. R.; Vaillant, F.; Wang, Z. X.; Hertzog, P. J. Biochemistry International 1992, 27, 501-10). In short: cells were seeded into 96-well plates according to doubling time and incubated overnight at 37° C. Test compounds were made up in DMSO and a 1/3 dilution series prepared in 100 μL cell media, added to cells (in triplicates) and incubated for 72 ho at 37° C. MTT was made up as a stock of 5 mg/mL in cell media and filter-sterilised. Media was removed from cells followed by a wash with 200 μL PBS.
(§2) MTT solution was then added at 20 μL per well and incubated in the dark at 37° C. for 4 h. MTT solution was removed and cells again washed with 200 μL PBS. MTT dye was solubilised with 200 μL per well of DMSO with agitation.

IMR-90 = assay: 72-h MTT cytotoxicity assay IMR-90; type: cell-based; conditions: Homo sapiens, IMR-90, 72 h; Table 5; Foetal lung fibroblast (non-transformed)
Method: as §1, §2

Hela = assay: 72-h MTT cytotoxicity assay Hela; type: cell-based; conditions: Homo sapiens, Table 5, Cervix
Method: as §1, §2

Messa = assay: 72-h MTT cytotoxicity assay Messa; type: cell-based; conditions: Homo sapiens, MES-SA, Table 5, Uterine
Method: as §1, §2

Hacat = assay: 72-h MTT cytotoxicity assay Hacat; type: cell-based; conditions: Homo sapiens, Table 5, Skin keratinocytes
Method: as §1, §2

SKUT-1 = assay: 72-h MTT cytotoxicity assay SKUT-1; type: cell-based; conditions: Homo sapiens, SK-UT-1, 72 h; Table 5; Leiomyosarcoma
Method: as §1, §2

[1] = biological target: PKCα (protein kinase C α) (Homo sapiens, UniProt P17252); assay: Kinase assay PKCα; type: biochemical; conditions: Table 3 selectivity panel; read-out: Kinase specificity IC50 PKCα
Method: (§3) Kinase assays. […] This was achieved by measurement of incorporation of radioactive phosphate from ATP into appropriate polypeptide substrates. Recombinant protein kinases and kinase complexes were produced or obtained commercially. Assays were performed using 96-well plates and appropriate assay buffers (typically 25 mM β-glycerophosphate, 20 mM MOPS, 5 mM EGTA, 1 mM DTT, 1 mM […], pH 7.4), into which were added 2-4 μg of active enzyme with appropriate substrates. The reactions were initiated by addition of Mg/ATP mix (15 mM MgCl2+100 μM ATP with 30-50 kBq per well of [γ-^32P]-ATP) and mixtures incubated as required at 30° C. Reactions were stopped on ice, followed by filtration through p81 filterplates or GF/C filterplates (Whatman Polyfiltronics, Kent, UK). After washing 3 times with 75 mM aq orthophosphoric acid, plates were dried, scintillant added and incorporated radioactivity measured in a scintillation counter (TopCount, Packard Instruments, Pangbourne, Berks, UK). Compounds for kinase assay were made-up as 10 mM stocks in DMSO and diluted into 10% DMSO inrassay buffer.

CCRF-CEM = assay: 72-h MTT cytotoxicity assay CCRF-CEM; type: cell-based; conditions: Homo sapiens, Table 5, Leukemia
Method: as §1, §2

[2] = Compound cytotoxicity in PBMCs (MTS); type: cell-based; conditions: human, concentration decreasing cell viability by 50%, read-out: PBMC TC50
Method: Representative compounds of the present invention were tested for antiviral activity against HIV-1 in human peripheral blood mononuclear cells (PBMCs) using the clinical paediatric HIV strain RoJo or WeJo. PBMCs were cultured under conditions which promote cell survival and HIV replication. Antiviral activity was tested for from 6-9 log10 serial dilutions of a 100 μM compound stock solution in DMSO.
Fresh PBMCs, seronegative for HIV and HBV, were isolated from screened donors (Interstate Blood Bank, Inc. Memphis, Term.). Cells were pelleted/washed 2-3 times by low speed centrifugation and re-suspension in PBS to remove contaminating platelets. […] Banded PBMCs were gently aspirated from the resulting interface and subsequently washed with PBS by low speed centrifugation. After the final wash, cells were enumerated by trypan blue exclusion and re-suspended in RPMI 1640 supplemented with fetal bovine serum (FBS), and L-glutamine, Phytohemagglutinin (PHA-P, Sigma). The cells were allowed to incubate at 37° C. After incubation, PBMCs were centrifuged and resuspended in RPMI 1640 with FBS, L-glutamine, penicillin, streptomycin, gentamycin, and recombinant human IL-2 (R&D Systems, Inc). IL-2 is included in the culture medium to maintain the cell division initiated by the PHA mitogenic stimulation. PBMCs were maintained in this with bi-weekly medium changes until used in the assay protocol. Cells were kept in culture for a maximum of two weeks before being deemed too old for use in assays and discarded. Monocytes were depleted from the culture as the result of adherence to the tissue culture flask.
For the standard PBMC assay, PHA-P stimulated cells from at least two normal donors were pooled, diluted and plated in the interior wells of a 96-well round bottom microplate. Pooling of mononuclear cells from more than one donor was used to minimise the variability observed between individual donors, which results from quantitative and qualitative differences in HIV infection and overall response to the PHA and IL-2 of primary lymphocyte populations. Each plate contained virus/cell control wells (cells plus virus), experimental wells (drug plus cells plus virus) and compound control wells (drug plus media […], necessary for MTS monitoring of cytotoxicity). Since HIV-1 is not cytopathic to PBMCs, this allows the use of the same assay plate for both antiviral activity and cytotoxicity measurements. Test drug dilutions were prepared in microtiter tubes and each concentration was placed in appropriate wells using the standard format. A predetermined dilution of virus stock was placed in each test well (final MOI≅0.1). The PBMC cultures were maintained for seven days following infection at 37° C., 5% CO2. After this period, cell-free supernatant samples were collected for analysis of reverse transcriptase activity and/or HIV p24 content. Following removal of supernatant samples, compound cytotoxicity was measured by addition of MTS to the plates for determination of cell viability. Wells were also examined microscopically and any abnormalities were noted.

Messa-Dx5 = assay: 72-h MTT cytotoxicity assay Messa-Dx5; type: cell-based; conditions: Homo sapiens, MES-SA/Dx5, 72 h; Table 5; Uterine
Method: as §1, §2

[3] = biological target: ERK2 (extracellular-signal-regulated kinase 2) (Homo sapiens, UniProt P28482); assay: Kinase assay ERK2; type: biochemical; conditions: Table 3 selectivity panel; read-out: Kinase specificity IC50 ERK2
Method: as §3

[4] = biological target: CaMKII (calmodulin-depependent kinase II); assay: Kinase assay CaMKII; type: biochemical; conditions: Table 3 selectivity panel; read-out: Kinase specificity IC50 CaMKII
Method: as §3

CDK2/cyclin A = CDK2/cyclin A (Homo sapiens, UniProt P24941); assay: Kinase assay CDK2/cyclin A; type: biochemical
Procedure, shortened: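 Radiometric kinase assays with recombinant enzymes (2-4 μg) and polypeptide substrates in β-glycerophosphate/MOPS/EGTA buffer, pH 7.4. Started with 15 mM MgCl2 + 100 μM ATP containing [γ-32P]-ATP, incubated at 30° C; incorporated 32P captured on filterplates and counted. Compounds diluted in 10% DMSO assay buffer.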

[5] = Table 2, read-out: Kinase Inhibition IC50 CDK2 cyclin A
[6] = Table 3 selectivity panel, read-out: Kinase specificity IC50 CDK2/A

Chain of ERK2 (extracellular-signal-regulated kinase 2) (P28482 whole entry, species assumed): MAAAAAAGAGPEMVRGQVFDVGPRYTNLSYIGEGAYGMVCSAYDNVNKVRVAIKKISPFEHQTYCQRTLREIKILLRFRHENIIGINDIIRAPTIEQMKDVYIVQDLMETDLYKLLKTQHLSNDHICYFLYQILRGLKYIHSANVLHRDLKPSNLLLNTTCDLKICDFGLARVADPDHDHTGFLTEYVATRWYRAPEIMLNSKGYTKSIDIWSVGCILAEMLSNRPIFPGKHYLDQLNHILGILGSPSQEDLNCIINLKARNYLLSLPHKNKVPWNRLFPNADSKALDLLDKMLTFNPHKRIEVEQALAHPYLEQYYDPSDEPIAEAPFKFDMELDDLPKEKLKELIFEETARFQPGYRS

Row | Compound | IC50 (Lovo) [nM] | IC50 (IMR-90) [nM] | IC50 (Hela) [nM] | IC50 (Messa) [nM] | IC50 (Hacat) [nM] | IC50 (SKUT-1) [nM] | IC50 [1] [nM] | IC50 (CCRF-CEM) [nM] | CC50 at 7 days [2] [nM] | IC50 (Messa-Dx5) [nM] | IC50 [3] [nM] | IC50 [4] [nM] | IC50 (CDK2/cyclin A; [5]) [nM] | IC50 (CDK2/cyclin A; [6]) [nM]
1 | Cc1nc(N)sc1-c1ccnc(Nc2ccc(N3CCOCC3)cc2)n1 [Compound 1, [4-(2-Amino-4-methyl-thiazol-5-yl)-pyrimidin-2-yl]-(4-morpholin-4-yl-phenyl)-amine] | 900 | > 5000 | 1800 | 200 | 1100 | 900 | > 100000 | 900 | 6100 | 200 | – | – | – | –
2 | CNc1nc(C)c(-c2ccnc(Nc3ccc(N4CCOCC4)cc3)n2)s1 [Compound 3, [4-(2-N-Methylamino-4-methyl-thiazol-5-yl)-pyrimidin-2-yl]-(4-morpholinophenyl)-amine] | – | – | – | – | – | – | > 100000 | – | > 100000 | – | > 100000 | > 100000 | – | –
3 | CCNc1nc(C)c(-c2ccnc(Nc3ccc(N4CCOCC4)cc3)n2)s1 [Compound 4, [4-(2-Ethylamino-4-methyl-thiazol-5-yl)-pyrimidin-2-yl]-(4-morpholin-4-yl-phenyl)-amine] | – | – | – | – | – | – | – | – | 9400 | – | – | – | – | –
4 | CNc1nc(C)c(-c2ccnc(Nc3ccc(N4CCN(Cc5ccccc5)CC4)cc3)n2)s1 [Compound 11, [4-(4-Benzyl-piperazin-1-yl)-phenyl]-[4-(4-methyl-2-methylamino-thiazol-5-yl)-pyrimidin-2-yl]-amine] | 2000 | 31000 | 6200 | 100 | 1000 | 800 | > 100000 | 500 | – | 200 | > 100000 | 56000 | 2200 | 2200
5 | Cc1nc(NC(=O)[C@H](N)[C@@H](C)O)sc1-c1ccnc(Nc2cccc([N+](=O)[O-])c2)n1 [Compound 15, (2R,3R)-2-Amino-3-hydroxy-N-{4-methyl-5-[2-(3-nitro-phenylamino)-pyrimidin-4-yl]-thiazol-2-yl}-butyramide] | 700 | 2500 | 700 | 900 | 1500 | 900 | > 100000 | 2600 | 2400 | 400 | > 100000 | 3900 | 850 | 400
6 | CC[C@@H](N)C(=O)Nc1nc(C)c(-c2ccnc(Nc3cccc([N+](=O)[O-])c3)n2)s1 [Compound 16, (2R)-2-Amino-N-{4-methyl-5-[2-(3-nitro-phenylamino)-pyrimidin-4-yl]-thiazol-2-yl}-butyramide] | 300 | 1700 | 400 | 400 | 1100 | 200 | 53000 | 1100 | – | 100 | > 100000 | 11000 | 650 | 650
7 | Cc1nc(C)c(-c2ccnc(Nc3ccc(NC(=O)CN4CCCC4)cc3)n2)s1 [Compound 53, N-{4-[4-(2,4-Dimethyl-thiazol-5-yl)-pyrimidin-2-ylamino]-phenyl}-2-pyrrolidin-1-yl-acetamide] | – | – | – | – | – | – | – | – | 1600 | – | – | – | 5300 | –
